Numbered stars: 1 amine (or outer) side, 2 acyl side, 3 side chain; on linkers, the order of the positions; unused ones are H or OH. Bridge positions count the residues as written; N and C are the ends. Square brackets hold non-standard residues; d marks the D form. Peptide text beside a SMILES is read from it. I, II: the chains in the order shown. BMH = O=C1CC([*:1])C(=O)N1CCCCCCN1C(=O)CC([*:2])C1=O; Oic = O=C(O)[C@@H]1C[C@@H]2CCCC[C@@H]2N1; Hyp = O=C(O)[C@@H]1C[C@@H](O)CN1; dTic = O=C(O)[C@H]1Cc2ccccc2CN1
What was measured:
BK1 receptor [1] = molecular target: T1, BK1 receptor (Oryctolagus cuniculus, UniProt P48748); assay: rabbit aorta in vitro, reversal of des-Arg^9 -BK contraction; assay type: cell-based; conditions: for IC50: negative log of molar concentration
T1 construct: when administered to an intact animal; from tissue; host or cells: whole rabbit (systemic arterial blood pressure), LPS-pretreated
T1 sequence (P48748 1-352): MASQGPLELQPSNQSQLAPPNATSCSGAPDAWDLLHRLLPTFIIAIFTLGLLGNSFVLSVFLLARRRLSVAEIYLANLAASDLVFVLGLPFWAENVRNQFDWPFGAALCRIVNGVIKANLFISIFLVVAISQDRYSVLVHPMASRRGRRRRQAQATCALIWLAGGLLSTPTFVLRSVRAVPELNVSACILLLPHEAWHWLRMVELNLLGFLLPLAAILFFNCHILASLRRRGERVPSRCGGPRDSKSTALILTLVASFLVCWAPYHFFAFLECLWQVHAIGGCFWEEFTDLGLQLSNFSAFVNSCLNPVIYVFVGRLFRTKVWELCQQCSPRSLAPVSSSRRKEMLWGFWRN

BK2 receptor [2] = molecular target: T2, BK2 receptor (Rattus norvegicus, UniProt P25023); conditions: for BK2 Rat Uterus pA2: Table L
T2 sequence (P25023 1-396): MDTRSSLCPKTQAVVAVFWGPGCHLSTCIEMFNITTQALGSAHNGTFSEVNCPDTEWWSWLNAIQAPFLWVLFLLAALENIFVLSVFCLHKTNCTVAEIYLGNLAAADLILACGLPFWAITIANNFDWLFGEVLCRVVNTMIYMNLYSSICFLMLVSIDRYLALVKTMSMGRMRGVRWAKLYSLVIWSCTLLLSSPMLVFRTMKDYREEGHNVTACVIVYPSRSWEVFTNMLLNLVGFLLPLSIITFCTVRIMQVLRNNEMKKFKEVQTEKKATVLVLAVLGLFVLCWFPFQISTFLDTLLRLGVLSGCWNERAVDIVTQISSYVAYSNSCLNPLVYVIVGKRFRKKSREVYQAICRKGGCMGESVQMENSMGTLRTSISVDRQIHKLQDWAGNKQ

BK2 receptor [3] = molecular target: T3, BK2 receptor (Cavia porcellus, UniProt O70526); assay: guinea-pig ileum (GPI) in vitro, antagonism of BK; assay type: cell-based; conditions: Table B; read-out: pA2 GUINEA PIG ILEUM (converted)
T3 construct: tested for activity on guinea pig ileum in vitro on the standard tissue bath/strain gauge system; from tissue; host or cells: guinea pig ileum
T3 sequence (O70526 1-372): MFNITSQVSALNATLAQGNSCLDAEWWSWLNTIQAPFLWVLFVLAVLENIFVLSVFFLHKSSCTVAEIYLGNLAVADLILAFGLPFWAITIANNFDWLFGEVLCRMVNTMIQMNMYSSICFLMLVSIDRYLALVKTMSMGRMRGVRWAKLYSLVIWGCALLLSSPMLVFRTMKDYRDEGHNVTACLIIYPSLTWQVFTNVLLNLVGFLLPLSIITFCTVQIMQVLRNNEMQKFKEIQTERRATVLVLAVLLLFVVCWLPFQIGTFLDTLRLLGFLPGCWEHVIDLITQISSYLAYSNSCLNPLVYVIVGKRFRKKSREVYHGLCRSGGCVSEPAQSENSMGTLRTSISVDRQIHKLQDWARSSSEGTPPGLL
Procedure: Thus, in vitro studies were performed on standard assay systems, namely, guinea-pig ileum (GPI), rat uterus (RU) and rabbit jugular vein (RJV). […] The potency of each compound was assessed as a pA2 value according to the method of Arunlakshana & Schild, Br. J. Pharmacol. Chemother., 1.4:48-58 (1959). The pA2 can be defined as the negative logarithm of the molar concentration of the antagonist in the presence of which the potency of the agonist is reduced two-fold, i.e., twice the amount of agonist is required to produce a given response in the presence of, than in the absence of, the antagonist. A high potency of antagonism is indicated by a high pA2 value, i.e., a low concentration of antagonist is effective.
The percentage recovery (% Rec) was also determined for compounds with respect to each assay.
The various compounds identified in Table B below were prepared following the procedure of Example 1 with the Cys moiety introduced into the parent CP-0088 at the position indicated followed by reaction between the sulfhydryl group of the Cys residue and BMH to provide dimers as indicated. The Cys-modified monomers and the resultant dimers were tested for activity on guinea pig ileum in vitro on the standard tissue bath/strain gauge system as before.

BK2 receptor [4] = molecular target: T2, BK2 receptor; assay: cell-based
BK1 receptor [5] = molecular target: T1, BK1 receptor; assay: blood pressure response to BK1 agonist in LPS-pretreated rabbits; assay type: in vivo, rabbit; conditions: for OBSERVED ANTAGONIST ACTIVITY BK1: rabbits given LPS (10 μg) 20 hours before
BK2 receptor [6] = molecular target: T4, BK2 receptor (Oryctolagus cuniculus, UniProt Q28642); assay: blood pressure response to BK2 agonist in LPS-pretreated rabbits; assay type: in vivo, rabbit; set-up: key to OBSERVED ANTAGONIST ACTIVITY BK2: +: indicates complete blockade of the blood pressure response to the appropriate agonist; +/-: indicates partial blockade; -: indicates no observable effect at the dose indicated; conditions: for OBSERVED ANTAGONIST ACTIVITY BK2: rabbits given LPS (10 μg) 20 hours before
T4 construct: when administered to an intact animal; from tissue; host or cells: whole rabbit (systemic arterial blood pressure), LPS-pretreated
T4 sequence (Q28642 1-367): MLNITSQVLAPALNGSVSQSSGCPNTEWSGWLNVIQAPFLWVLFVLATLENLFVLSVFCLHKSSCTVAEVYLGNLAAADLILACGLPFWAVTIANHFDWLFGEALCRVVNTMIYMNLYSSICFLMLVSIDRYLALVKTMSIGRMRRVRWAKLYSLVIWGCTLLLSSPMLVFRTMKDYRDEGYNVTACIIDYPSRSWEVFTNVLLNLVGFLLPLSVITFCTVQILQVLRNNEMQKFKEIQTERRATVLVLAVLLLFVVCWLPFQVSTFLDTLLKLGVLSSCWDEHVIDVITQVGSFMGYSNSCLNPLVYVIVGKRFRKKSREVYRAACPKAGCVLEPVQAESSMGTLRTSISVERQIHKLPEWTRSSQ

[7] = FIG. 8c, rabbits after endotoxin pretreatment

SMILES	BK1 antagonism (BK1 receptor [1])	IC50 (BK1 receptor [1]; Table L) [nM]	activity in the rat uterus BK2 receptor system (BK2 receptor [2])	BK2 Rat Uterus pA2 (BK2 receptor [2])	Kb (BK2 receptor [4]) [nM]	OBSERVED ANTAGONIST ACTIVITY BK1 (BK1 receptor [5]; 1 μg kg^-1 min^-1)	OBSERVED ANTAGONIST ACTIVITY BK1 (BK1 receptor [5]; 3 μg kg^-1 min^-1)	OBSERVED ANTAGONIST ACTIVITY BK1 (BK1 receptor [5]; 10 μg kg^-1 min^-1)	OBSERVED ANTAGONIST ACTIVITY BK2 (BK2 receptor [6]; 1 μg kg^-1 min^-1)	OBSERVED ANTAGONIST ACTIVITY BK2 (BK2 receptor [6]; 3 μg kg^-1 min^-1)	OBSERVED ANTAGONIST ACTIVITY BK2 (BK2 receptor [6]; 10 μg kg^-1 min^-1)	further results
CC(C)C[C@H](NC(=O)[C@@H]1CCCN1C(=O)[C@H](CO)NC(=O)[C@H](Cc1ccccc1)NC(=O)CNC(=O)[C@@H]1C[C@@H](O)CN1C(=O)[C@@H]1CCCN1C(=O)[C@H](CSC1CC(=O)N(CCCCCCN2C(=O)CC(SC[C@H](NC(=O)[C@H](Cc3ccccc3)NC(=O)CNC(=O)[C@@H]3C[C@@H](O)CN3C(=O)[C@@H]3CCCN3C(=O)[C@H](CCCNC(=N)N)NC(=O)[C@H](N)CCCNC(=N)N)C(=O)N[C@H](Cc3ccccc3)C(=O)N[C@@H](CC(C)C)C(=O)N[C@@H](CCCNC(=N)N)C(=O)O)C2=O)C1=O)NC(=O)[C@@H](N)CCCCN)C(=O)O (stereo partly shown) [CP-0382] (HELM PEPTIDE1{[dR].R.P.[Hyp].G.F.C.[dF].L.R}|PEPTIDE2{K.C.P.[Hyp].G.F.S.P.L}|CHEM1{[O=C1CC([*:1])C(=O)N1CCCCCCN1C(=O)CC([*:2])C1=O]}$PEPTIDE1,CHEM1,7:R3-1:R1|PEPTIDE2,CHEM1,2:R3-1:R2$$$V2.0; N-terminus and C-terminus assumed)	BK1 antagonism was retained	631	substantial partial agonism	Agonist								
CC(C)C[C@H](NC(=O)[C@@H]1CCCN1C(=O)[C@H](CO)NC(=O)[C@H](Cc1cccs1)NC(=O)CNC(=O)[C@@H]1CCCN1C(=O)[C@@H]1CCCN1C(=O)[C@H](CSC1CC(=O)N(CCCCCCN2C(=O)CC(SC[C@H](NC(=O)[C@H](Cc3ccccc3)NC(=O)CNC(=O)[C@@H]3C[C@@H](O)CN3C(=O)[C@@H]3CCCN3C(=O)[C@H](CCCNC(=N)N)NC(=O)[C@H](N)CCCNC(=N)N)C(=O)N[C@H](Cc3ccccc3)C(=O)N[C@@H](CC(C)C)C(=O)N[C@@H](CCCNC(=N)N)C(=O)O)C2=O)C1=O)NC(=O)[C@@H](N)CCCCN)C(=O)O (stereo partly shown) [CP-0383] (HELM PEPTIDE1{[dR].R.P.[Hyp].G.F.C.[dF].L.R}|PEPTIDE2{K.C.P.P.G.[O=C([C@H](Cc1cccs1)N[*:1])[*:2]].S.P.L}|CHEM1{[O=C1CC([*:1])C(=O)N1CCCCCCN1C(=O)CC([*:2])C1=O]}$PEPTIDE1,CHEM1,7:R3-1:R1|PEPTIDE2,CHEM1,2:R3-1:R2$$$V2.0)	BK1 antagonism was retained	15.8	substantial partial agonism	Agonist								
CC(C)C[C@H](NC(=O)[C@@H](Cc1ccccc1)NC(=O)[C@H](CO)NC(=O)[C@H](Cc1ccccc1)NC(=O)CNC(=O)[C@@H]1C[C@@H](O)CN1C(=O)[C@@H]1CCCN1C(=O)[C@H](CS)NC(=O)[C@H](N)CCCNC(=N)N)C(=O)N[C@@H](CCCNC(=N)N)C(=O)O [CP-0141] (HELM PEPTIDE1{[dR].C.P.[Hyp].G.F.S.[dF].L.R}$$$$V2.0)					> 1000							Kb (BK2 receptor [3]): 794 nM; % REC MONOMER (BK2 receptor [2]; Table C, rat uterus): 100%
N=C(N)NCCC[C@@H](N)C(=O)N[C@@H](CCCNC(=N)N)C(=O)N1CCC[C@H]1C(=O)N1C[C@H](O)C[C@H]1C(=O)NCC(=O)N[C@@H](Cc1ccccc1)C(=O)N[C@@H](CSC1CC(=O)N(CCCCCCN2C(=O)CC(SC[C@H](NC(=O)[C@H](N)CCCNC(=N)N)C(=O)N3CCC[C@H]3C(=O)N3C[C@H](O)C[C@H]3C(=O)NCC(=O)N[C@@H](Cc3ccccc3)C(=O)N[C@@H](CO)C(=O)N3Cc4ccccc4C[C@@H]3C(=O)N3[C@H](C(=O)O)C[C@@H]4CCCC[C@@H]43)C2=O)C1=O)C(=O)N1Cc2ccccc2C[C@@H]1C(=O)N1[C@H](C(=O)N[C@@H](CCCNC(=N)N)C(=O)O)C[C@@H]2CCCC[C@@H]21 (stereo partly shown) [CP-0365] (I: H-[dR]RP[Hyp]GFC[dTic][Oic]R-OH / II: H-[dR]CP[Hyp]GFS[dTic][Oic]-OH; linker I:7-II:2 via BMH; N-terminus and C-terminus assumed)		39.8			3.98	-	+	+	-	+	+	
CC(C)C[C@H](NC(=O)[C@@H]1CCCN1C(=O)[C@H](CO)NC(=O)[C@H](Cc1ccccc1)NC(=O)CNC(=O)[C@@H]1C[C@@H](O)CN1C(=O)[C@@H]1CCCN1C(=O)[C@H](CS)NC(=O)[C@H](N)CCCNC(=N)N)C(=O)O [CP-0362] (HELM PEPTIDE1{[dR].C.P.[Hyp].G.F.S.P.L}$$$$V2.0; N-terminus and C-terminus assumed)												IC50 (BK1 receptor [1]; Table K): 1000 nM; BK2 (RAT UTERUS) pA2 (BK2 receptor [2]; Table K): Inactive
CC(C)C[C@H](NC(=O)[C@@H]1CCCN1C(=O)[C@H](CO)NC(=O)[C@H](Cc1ccccc1)NC(=O)CNC(=O)[C@@H]1C[C@@H](O)CN1C(=O)[C@@H]1CCCN1C(=O)[C@H](CSC1CC(=O)N(CCCCCCN2C(=O)CC(SC[C@H](NC(=O)[C@H](Cc3ccccc3)NC(=O)CNC(=O)[C@@H]3C[C@@H](O)CN3C(=O)[C@@H]3CCCN3C(=O)[C@H](CCCNC(=N)N)NC(=O)[C@H](N)CCCNC(=N)N)C(=O)N[C@H](Cc3ccccc3)C(=O)N[C@@H](CC(C)C)C(=O)N[C@@H](CCCNC(=N)N)C(=O)O)C2=O)C1=O)NC(=O)[C@H](N)CCCNC(=N)N)C(=O)O (stereo partly shown) [CP-0364] (HELM PEPTIDE1{[dR].R.P.[Hyp].G.F.C.[dF].L.R}|PEPTIDE2{[dR].C.P.[Hyp].G.F.S.P.L}|CHEM1{[O=C1CC([*:1])C(=O)N1CCCCCCN1C(=O)CC([*:2])C1=O]}$PEPTIDE1,CHEM1,7:R3-1:R1|PEPTIDE2,CHEM1,2:R3-1:R2$$$V2.0; N-terminus and C-terminus assumed)		31.6			5.01	+	+	+	+	+	+	block of BK1-mediated hypotensive response (BK1 receptor [5]; [7]): capable of blocking the response profile to both agonists simultaneously; block of BK2-mediated hypotensive response (BK2 receptor [6]; [7]): capable of blocking the response profile to both agonists simultaneously
